From BigSolDB 2.1
Values belong to the compound of their own block, whether it stands above or below them.

Conditions: in water

SMILES: COc1cc(NS(=O)(=O)c2ccc(N)cc2)ncn1
- solubility (mole fraction) (298.15 K): 3.88e-06
- solubility (mole fraction) (303.15 K): 4.9e-06
- solubility (mole fraction) (308.15 K): 6.13e-06
- solubility (mole fraction) (313.15 K): 7.65e-06
- solubility (mole fraction) (318.15 K): 9.63e-06
- solubility (mole fraction) (323.15 K): 1.17e-05
- solubility (mole fraction) (328.15 K): 1.45e-05
- solubility (mole fraction) (333.15 K): 1.76e-05

SMILES: COc1cc(NS(=O)(=O)c2ccc(N)cc2)nc(OC)n1
- solubility (mole fraction) (298.15 K): 3.07e-06
- solubility (mole fraction) (303.15 K): 3.83e-06
- solubility (mole fraction) (308.15 K): 4.78e-06
- solubility (mole fraction) (313.15 K): 5.83e-06
- solubility (mole fraction) (318.15 K): 7.25e-06
- solubility (mole fraction) (323.15 K): 8.76e-06
- solubility (mole fraction) (328.15 K): 1.05e-05
- solubility (mole fraction) (333.15 K): 1.28e-05

More lines, now with the values ahead:

- solubility (mole fraction) (298.15 K): 5.52e-06
- solubility (mole fraction) (303.15 K): 7.19e-06
- solubility (mole fraction) (308.15 K): 9.26e-06
- solubility (mole fraction) (313.15 K): 1.17e-05
- solubility (mole fraction) (318.15 K): 1.48e-05
- solubility (mole fraction) (323.15 K): 1.88e-05
- solubility (mole fraction) (328.15 K): 2.34e-05
- solubility (mole fraction) (333.15 K): 2.92e-05
SMILES: COc1cnc(NS(=O)(=O)c2ccc(N)cc2)nc1

- solubility (mole fraction) (298.15 K): 4.82e-06
- solubility (mole fraction) (303.15 K): 6.2e-06
- solubility (mole fraction) (308.15 K): 8.23e-06
- solubility (mole fraction) (313.15 K): 1.05e-05
- solubility (mole fraction) (318.15 K): 1.33e-05
- solubility (mole fraction) (323.15 K): 1.7e-05
- solubility (mole fraction) (328.15 K): 2.1e-05
- solubility (mole fraction) (333.15 K): 2.62e-05
SMILES: Nc1ccc(S(=O)(=O)Nc2ncccn2)cc1

- solubility (mole fraction) (298.15 K): 1.12e-05
- solubility (mole fraction) (303.15 K): 1.35e-05
- solubility (mole fraction) (308.15 K): 1.59e-05
- solubility (mole fraction) (313.15 K): 1.91e-05
- solubility (mole fraction) (318.15 K): 2.3e-05
- solubility (mole fraction) (323.15 K): 2.75e-05
- solubility (mole fraction) (328.15 K): 3.28e-05
- solubility (mole fraction) (333.15 K): 3.91e-05
SMILES: Nc1ccc(S(=O)(=O)[N-]c2cncc(Cl)n2)cc1.[Na+]
